Data taken from ChEMBL document CHEMBL4251610, “Branching tryptamines as a tool to tune their antiproliferative activity” (Eur J Med Chem, 2018).

Columns and labels:
Type in all cases: functional, cell-based
[1] = tested on: Jurkat; test: Antiproliferative activity against human Jurkat cells after 24 hrs by MTT assay
[2] = tested on: HEK293; test: Antiproliferative activity against HEK293 cells after 24 hrs by MTT assay; conditions: Homo sapiens, HEK293, 24 h
[3] = tested on: SH-SY5Y; test: Antiproliferative activity against human SH-SY5Y cells after 24 hrs by MTT assay
[4] = tested on: HepG2; test: Antiproliferative activity against human HepG2 cells after 24 hrs by MTT assay; conditions: HepG2, 24 h

Row | SMILES | IC50 [1] | IC50 [2] | IC50 [3] | IC50 [4]
1 | Cc1[nH]c2ccc(F)cc2c1CC(N)c1ccccc1 (configuration not stated) | 15.2 µM | 73.5 µM | 59.1 µM | 15.8 µM
2 | Cc1c(CCN)c2cc(F)ccc2n1Cc1ccccc1 | 13.5 µM | 17.2 µM | 13.1 µM | 19.7 µM
3 | Cc1[nH]c2ccc(-c3ccccc3)cc2c1CC(N)c1ccccc1 (configuration not stated) | 1.58 µM | 10.1 µM | 12.5 µM | 1.82 µM
4 | Cc1[nH]c2ccc(F)cc2c1CCN | > 100 µM | > 100 µM | > 100 µM | > 100 µM
5 | COc1cc(CNCCc2c(C)[nH]c3ccc(F)cc23)cc2c1OCO2 | 13.9 µM | 17.7 µM | 12.5 µM | 16.4 µM
6 | COc1cc(CNCCc2c(C)[nH]c3ccc(-c4ccccc4)cc23)cc2c1OCO2 | 1.51 µM | 8.27 µM | 9.07 µM | 1.37 µM
7 | Cc1c(CC(N)c2ccccc2)c2cc(-c3ccccc3)ccc2n1Cc1ccccc1 (configuration not stated) | 1.9 µM | 16.3 µM | 11.9 µM | 1.46 µM
8 | Cc1c(CC(N)c2ccccc2)c2cc(F)ccc2n1Cc1ccccc1 (configuration not stated) | 14 µM | 16.7 µM | 15 µM | 13.1 µM
9 | Cc1c(CCN)c2cc(-c3ccccc3)ccc2n1Cc1ccccc1 | 3.82 µM | 15.4 µM | 12.2 µM | 1.9 µM
10 | Cc1[nH]c2ccc(F)cc2c1CC(NCc1ccccc1)c1ccccc1 (configuration not stated) | 13.8 µM | 65.2 µM | 20.2 µM | 19.4 µM
11 | Cc1[nH]c2ccc(-c3ccccc3)cc2c1CC(NCc1ccccc1)c1ccccc1 (configuration not stated) | 8.88 µM | 20.1 µM | 20.1 µM | 45.5 µM
12 | Cc1[nH]c2ccc(Br)cc2c1CC(N)c1cc(Cl)cc(Cl)c1 (configuration not stated) | 9.55 µM | 30.9 µM | 27.6 µM | 14.8 µM
13 | Cc1[nH]c2ccc(F)cc2c1CCNCc1ccccc1 | 12.9 µM | 21.4 µM | 25 µM | 14.7 µM
14 | Cc1[nH]c2ccc(Br)cc2c1CC(N)c1ccccc1 (configuration not stated) | 20.4 µM | 39.4 µM | 42.7 µM | 14 µM
15 | Cc1[nH]c2ccc(Br)cc2c1CC(N)c1ccc(F)cc1 (configuration not stated) | 11.8 µM | 23.2 µM | 22.9 µM | 9.58 µM
16 | Cc1ccc2[nH]c(C)c(CC(N)c3ccccc3)c2c1 (configuration not stated) | 13.2 µM | 94 µM | 46.1 µM | 17.1 µM
17 | Cc1[nH]c2ccc(Br)cc2c1C[C@H](N)c1ccccc1 | 13.8 µM | 34.8 µM | 25.2 µM | 10.8 µM
18 | Cc1ccc(C(N)Cc2c(C)[nH]c3ccc(Br)cc23)cc1 (configuration not stated) | 9.86 µM | 23.2 µM | 21.9 µM | 7.76 µM
19 | COc1ccc(C(N)Cc2c(C)[nH]c3ccc(Br)cc23)cc1 (configuration not stated) | 8.14 µM | 18.7 µM | 17.8 µM | 7.12 µM
20 | COc1cc(CNC(Cc2c(C)[nH]c3ccc(F)cc23)c2ccccc2)cc2c1OCO2 (configuration not stated) | 14.5 µM | 54.9 µM | 20 µM | 15.6 µM
21 | Cc1[nH]c2ccccc2c1CC(N)c1ccccc1 (configuration not stated) | 15.5 µM | 109 µM | 117 µM | 16.7 µM
22 | Cc1[nH]c2ccc(Br)cc2c1CC(N)c1ccc(Cl)cc1 (configuration not stated) | 7.5 µM | 18.4 µM | 18.6 µM | 8.43 µM
23 | Cc1[nH]c2ccc(-c3ccccc3)cc2c1CCNCc1ccccc1 | 1.45 µM | 16.6 µM | 5.71 µM | 1.49 µM
